Reference: patent publication US20220062300A1 (priority 2019, published 2022)

Tests used:
[1] = tested on: formalin-induced pain behavior; assay: Formalin test (1% formalin, hind paw shakes) with isobologram analysis; assay type: in vivo; conditions: IM, rat; for dose giving maximal antinociception effect: both phases of the formalin test; for dose reaching a significant difference in % antinociception: phase 2 of the formalin test; for ED30 (dose delivering 30% of the maximal effect): single drug, 60 min before formalin, % antinociception
Excerpt: Male Wistar rats aged 7-8 weeks weighting 175-199 g were used in the experiments. Rats had free access to food and water before the experiments. All experimental procedures complied with the Guidelines on Ethical Standards for investigations of Experimental Pain in Animals (IASP, 1983). Each rat was used only once and was sacrificed in a CO2-saturated glass bell. The formalin model is used mainly with rodents. The test consists in the subcutaneous administration of formalin (formaldehyde in concentrations ranging from 1 to 5%), in a 20-25 μL volume for mice 30-100 μL for rats. The injection is usually administered in the dorsal surface of the right hind paw, and animals are sacrificed once the test is finished. The formalin test describes several behaviors, such as biting, licking and shaking the injected hind paw. Hind paw shaking is the most used parameter for quantifying the degree of pain. The formalin test in rodents is biphasic. […] The second phase (tonic or inflammatory) onsets 15-20 minutes after the injection and lasts 20-40 minutes. The 1%-formalin injection induced the typical shaking behavior, characterized by a brisk withdrawal or bending of the injected hind paw. The temporal course was assessed in this figure after the 1%-formalin injection, and the biphasic (phase 1 and 2) behavior characterizing this model was observed. An isobologram analysis was employed to assess aceclofenac and betamethasone interactions. […] When connecting the dots an additivity line is obtained, useful to establish the type of interaction of both compounds under study. Dose-response curves (DRC) are constructed to obtain the ED30's of each active principle. At least 4 doses of each active principle are administered by IM injection to at least 6 animals. […] Before the test, the drugs were diluted and mixed for intramuscular administration. […] This dose was statistically compared to the dose that theoretically is the simple addition of effects, and which can be obtained with the following formula: […] Where R is the potency ratio of drugs 1 and 2 administered alone; P1 is the proportion of drug 1 in the mixture; P2 is the proportion of drug 2 in the mixture. […] The interaction type is determined by the graph region where the experimental value is located in relation to the theoretical value. If the value lies below the additivity line and is statistically different from the theoretical value, then the interaction is synergic (an effect greater than the sum of effects of each drug); if the value lies near the additivity line and is not statistically different from the theoretical value, then the interaction is only additive (an effect equal to the sum of effects of each drug). If the value lies […] and is statistically different from the theoretical value, then the interaction is subadditive or antagonistic. A software calculates the interaction index (I.I.) of two drugs, obtained with the following formula: I.I.=Experimental ED30/theoretical ED30 If the index is less than 1.0, then the interaction is synergic; if it is equal to 1.0, the interaction is additive, and if it is greater than 1.0, the interaction is antagonistic. For twelve hours before the experimental preclinical phase, rats fasted but had free access to water. […] The results are expressed as the average±standard error (SE) of at least 6 rats per group. The number of hind paw shakes/minute was graphed vs. time. The area under the curve (AUC) of temporal courses is a global expression of the effect intensity and duration, and was calculated with the trapezoid method. The antinoception percentage (%) was calculated with the following formula: % Antinociception=((Vehicle-Compound)/Vehicle)×100. The AUC's and % antinociception were evaluated by means of an analysis of variance (ANOVA) and a Tukey's test. Results with P<0.05 were considered statistically significant.

[2] = cited from earlier work

SMILES	dose giving maximal antinociception effect [1]	dose reaching a significant difference in % antinociception [1]	number of shakes in phase 2 of the formalin test, expressed as % antinociception [1]	ED30 (dose delivering 30% of the maximal effect) [1]	ED30 (dose delivering 30% of the maximal effect) ([1]; listed as betamethasone)	solubility in water [2]	ED30 (dose delivering 30% of the maximal effect) ([1]; listed as aceclofenac)
C[C@H]1C[C@H]2[C@@H]3CCC4=CC(=O)C=C[C@]4(C)[C@@]3(F)[C@@H](O)C[C@]2(C)[C@@]1(O)C(=O)CO [Betamethasone, (11β,16β)-9-Fluoro-11,17,21-trihydroxy-16-methylpregna-1,4-diene-3,20-dione]	31.6 mg/kg	17.7 mg/kg	decreased in a dose-dependent way	13.4722 mg/kg	13.472 mg/kg	insoluble in water	
O=C(O)COC(=O)Cc1ccccc1Nc1c(Cl)cccc1Cl [Aceclofenac, [(2-{2,6-dichlorophenyl)amino}phenylacetooxyacetic acid]]	31.6 mg/kg	17.7 mg/kg	decreased in a dose-dependent way	1.8662 mg/kg			13.472 mg/kg
